Results: patent US9359392B2, “Dendrimer scaffolds for pharmaceutical use” (Victoria Link Limited, priority 2012, dated 2016)

Tests used:
[1] = Stability under forcing degradation conditions with HPLC monitoring; assay type: physicochemical
Text: Assessment of Potential Cytotoxicity

[2] = tested on: sheep spleen cells; assay: Assessment of potential cytotoxicity: percentage cell viability versus a PBS control; assay type: cell-based; conditions: 36.5° C.
Experimental: The potential cytotoxic properties of compounds 12, 13 and 14 were evaluated by measuring percentage cell viability of sheep spleen cells versus a PBS control after 24 h and 48 h exposure to 0.01, 0.1 and 1 mg/mL solutions of each compound in PBS at 36.5° C.

[3] = Water relaxivity measurements (T1, inversion recovery NMR); assay type: physicochemical; conditions: 500 MHz (11.75 T), 30° C., aqueous solution
Experimental: Water relaxivity measurements provide an indication of whether a material will increase contrast in MRI imaging techniques. Water relaxivity measurements were performed in aqueous solutions. T1 measurements were made on a 500 MHz (11.75 T) Bruker NMR using a standard inversion recovery sequence (180-t-90) at 30° C. The relaxivity of water in D2O in the presence of (meglumine)2[Gd(III)(DPTA)(OH2)]

[4] = comparator salt, stated without test; cited from earlier work

2-Aminoacetic acid(N,N):{6,9-diaza-3-oxa-7-oxononanyl(9,9)}2x,4x,8x^G1,G2,G3:(6-aza-3,11-dioxa-7,10-dioxoundecanyl)16-cascadane [compound 13]
degradation ([1]; 24 h in 1% H2O2 at 20° C.): 63% | degradation ([1]; 24 h in 1 M HCl at 20° C.): 12% | degradation ([1]; 24 h in 1 M NaOH at 20° C.): 30% | degradation ([1]; 24 h neat at 40° C.): No observable degradation | degradation ([1]; 24 h neat at 80° C.): 41% | Cell viability ([2]; 0.01 mg/mL in PBS, 24 h): 107% | Cell viability ([2]; 0.01 mg/mL in PBS, 48 h): 97% | Cell viability ([2]; 0.1 mg/mL in PBS, 24 h): 104% | Cell viability ([2]; 0.1 mg/mL in PBS, 48 h): 98% | Cell viability ([2]; 1 mg/mL in PBS, 24 h): 106% | Cell viability ([2]; 1 mg/mL in PBS, 48 h): 100%

2-Aminoacetic acid(N,N):{6,9-diaza-3-oxa-7-oxononanyl(9,9)}2x,4x,8x^G1,G2,G3:(6-aza-3-oxa-7-oxooctanyl)16-cascadane [compound 14]
Cell viability ([2]; 0.01 mg/mL in PBS, 24 h): 104% | Cell viability ([2]; 0.01 mg/mL in PBS, 48 h): 99% | Cell viability ([2]; 0.1 mg/mL in PBS, 24 h): 104% | Cell viability ([2]; 0.1 mg/mL in PBS, 48 h): 97% | Cell viability ([2]; 1 mg/mL in PBS, 24 h): 97% | Cell viability ([2]; 1 mg/mL in PBS, 48 h): 90%

2-Aminoacetic acid(N,N):{6,9-diaza-3-oxa-7-oxononanyl(9,9)}2x,4x,8x^G1,G2,G36:(5-amino-3-oxapentanyl)16-cascadane [compound 12]
Cell viability ([2]; 0.01 mg/mL in PBS, 24 h): 94% | Cell viability ([2]; 0.01 mg/mL in PBS, 48 h): 84% | Cell viability ([2]; 0.1 mg/mL in PBS, 24 h): 92% | Cell viability ([2]; 0.1 mg/mL in PBS, 48 h): 85% | Cell viability ([2]; 1 mg/mL in PBS, 24 h): 99% | Cell viability ([2]; 1 mg/mL in PBS, 48 h): 87%

CNC[C@H](O)[C@@H](O)[C@H](O)[C@H](O)CO.CNC[C@H](O)[C@@H](O)[C@H](O)[C@H](O)CO.O=C([O-])CN(CCN(CC(=O)[O-])CC(=O)O)CCN(CC(=O)[O-])CC(=O)O.[Gd+3] [(meglumine)2[Gd(III)(DPTA)(OH2)], reference compound]
relaxivity of water in D2O [3]: 3.84 mM⁻¹ s⁻¹

O=C([O-])CN(CCN(CC(=O)[O-])CC(=O)[O-])CCN(CC(=O)[O-])CC(=O)[O-].[Gd+3].[Na+].[Na+] [Gd-DPTA disodium salt]
water solubility [4]: sparingly water soluble

Gadolinium complex of 2-aminoacetic acid(N,N):{6-aza-3-oxahexanyl(6,6)}2x^G1: (carboxymethyl)4-cascadane [34-Gd]
relaxivity of water in D2O [3]: 1.20 mM⁻¹ s⁻¹
